Each structure is given as a SMILES string. Bounds are passed on as bounds.

T1 sequence (P00746 26-253): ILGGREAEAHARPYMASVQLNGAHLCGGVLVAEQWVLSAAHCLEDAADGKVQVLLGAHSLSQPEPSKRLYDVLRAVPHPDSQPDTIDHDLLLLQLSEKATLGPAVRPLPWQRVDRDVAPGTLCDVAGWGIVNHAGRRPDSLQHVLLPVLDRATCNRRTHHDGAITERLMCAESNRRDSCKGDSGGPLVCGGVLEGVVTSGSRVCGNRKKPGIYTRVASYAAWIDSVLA

One assay addresses T1, Human Factor D (Homo sapiens, UniProt P00746).
T1 construct: purified from human serum; purchased Complement Technology, Inc; host or cells: human serum (natural protein, not recombinant)
The experiment in a line: Human Factor D Assay. The class given is biochemical. The following applies: Table 1; Factor D 80 nM, substrate Z-L-Lys-SBzl; read-out: IC50. The gist of the method: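 Serum-purified human factor D (80 nM final) was preincubated with compound for 5 min at room temperature in 50 mM Tris, 1 M NaCl, pH 7.5. Z-L-Lys-SBzl and DTNB were added at 100 μM each, and A405 was read every 30 s for 30 min. IC50 came from nonlinear regression of reaction rates versus compound concentration.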
A word on the IC50: it is the concentration that gives 50% inhibition. On to `CC(=O)c1cn(CC(=O)N2C[C@H](F)C[C@H]2C(=O)NCc2cccc(Cl)c2F)c2cc(C(=O)NS(=O)(=O)c3ccccc3)ccc12` [Compound 53, 3-acetyl-1-(2-((2S,4R)-2-(3-chloro-2-fluorobenzylcarbamoyl)-4-fluoropyrrolidin-1-yl)-2-oxoethyl)-N-(phenylsulfonyl)-1H-indole-6-carboxamide], for which the IC50 was < 1000 nM.
Regarding `NC(=O)c1nn(CC(=O)N2C[C@H](F)C[C@H]2C(=O)Nc2cccc(-c3ccccc3Cl)c2F)c2cc(C(=O)NS(=O)(=O)C3CC3)ccc12` [Compound 54], the IC50 was < 1000 nM.

Still in this assay, the particulars now being: Table 2; Factor D 80 nM, substrate Z-L-Lys-SBzl; read-out: IC50.
With `CC(C)(C)C(=O)Nc1nc2c(s1)c(C(N)=O)nn2CC(=O)N1C[C@H](F)C[C@H]1C(=O)Nc1cccc(-c2ccccc2Cl)c1F` [Compound 55, 1-(2-((2S,4R)-2-(2′-chloro-2-fluorobiphenyl-3-ylcarbamoyl)-4-fluoropyrrolidin-1-yl)-2-oxoethyl)-5-pivalamido-1H-pyrazolo[3,4-d]thiazole-3-carboxamide], the IC50 was < 1000 nM.
Take `CC(C)(C)C(=O)Nc1nc2c(s1)c(C(N)=O)nn2CC(=O)N1C[C@H](F)C[C@H]1C(=O)NCc1cccc(Cl)c1F` [Compound 56, 1-(2-((2S,4R)-2-(3-chloro-2-fluorobenzylcarbamoyl)-4-fluoropyrrolidin-1-yl)-2-oxoethyl)-5-pivalamido-1H-pyrazolo[3,4-d]thiazole-3-carboxamide]: the IC50 is < 1000 nM.
With `NC(=O)c1nn(CC(=O)N2C[C@H](F)C[C@H]2C(=O)Nc2cccc(-c3ccccc3Cl)c2F)c2cc(C(=O)NC3CC3)sc12` [Compound 57, 1-(2-((2S,4R)-2-(2′-chloro-2-fluorobiphenyl-3-ylcarbamoyl)-4-fluoropyrrolidin-1-yl)-2-oxoethyl)-N5-cyclopropyl-1H-thieno[3,2-c]pyrazole-3,5-dicarboxamide], the IC50 is < 1000 nM.
For the compound `CNC(=O)c1cc2c(s1)c(C(N)=O)nn2CC(=O)N1C[C@H](F)C[C@H]1C(=O)Nc1cccc(-c2ccccc2Cl)c1F` [Compound 58], the IC50 is < 1000 nM.
On the same count and under the same terms, in the case of `NC(=O)c1nn(CC(=O)N2C[C@H](F)C[C@H]2C(=O)Nc2cccc(-c3ccccc3Cl)c2F)c2cc(C(=O)N3CCOCC3)sc12` [Compound 59, 1-(2-((2S,4R)-2-(2′-chloro-2-fluorobiphenyl-3-ylcarbamoyl)-4-fluoropyrrolidin-1-yl)-2-oxoethyl)-5-(morpholine-4-carbonyl)-1H-thieno[3,2-c]pyrazole-3-carboxamide] it was < 1000 nM; in that of `NC(=O)c1nn(CC(=O)N2C[C@H](F)C[C@H]2C(=O)Nc2cccc(-c3ccccc3Cl)c2F)c2cc(C(=O)N3CCCC3)sc12` [Compound 60, 1-(2-((2S,4R)-2-(2′-chloro-2-fluorobiphenyl-3-ylcarbamoyl)-4-fluoropyrrolidin-1-yl)-2-oxoethyl)-5-(pyrrolidine-1-carbonyl)-1H-thieno[3,2-c]pyrazole-3-carboxamide], < 1000 nM.
`NC(=O)c1nn(CC(=O)N2C[C@H](F)C[C@H]2C(=O)Nc2cccc(-c3ccccc3Cl)c2F)c2cc(C(=O)NC3CCCC3)sc12` [Compound 61, 1-(2-((2S,4R)-2-(2′-chloro-2-fluorobiphenyl-3-ylcarbamoyl)-4-fluoropyrrolidin-1-yl)-2-oxoethyl)-N5-cyclopentyl-1H-thieno[3,2-c]pyrazole-3,5-dicarboxamide]: the IC50 is < 1000 nM.
`CN(C)C(=O)c1cc2c(s1)c(C(N)=O)nn2CC(=O)N1C[C@H](F)C[C@H]1C(=O)Nc1cccc(-c2ccccc2Cl)c1F` [Compound 62, 1-(2-((2S,4R)-2-(2′-chloro-2-fluorobiphenyl-3-ylcarbamoyl)-4-fluoropyrrolidin-1-yl)-2-oxoethyl)-N5,N5-dimethyl-1H-thieno[3,2-c]pyrazole-3,5-dicarboxamide]: the IC50 was < 1000 nM.

Staying with this assay, now noted: Table 3; factor D inhibition assay; read-out: IC50 (Stars).
Take `CC(=O)c1cn(CC(=O)N2C[C@H](F)C[C@H]2CCNS(=O)(=O)c2ccccc2)c2ccc(C(=O)NS(=O)(=O)C3CC3)cc12` [Compound 174, 3-acetyl-N-(cyclopropylsulfonyl)-1-(2-((2R,4R)-4-fluoro-2-(2-(phenylsulfonylamido)ethyl)pyrrolidin-1-yl)-2-oxoethyl)-1H-indole-5-carboxamide]: the IC50 was > 10000 nM.
`CC(=O)c1cn(CC(=O)N2C[C@H](F)C[C@H]2C(=O)NCc2ccccc2)c2ccc(C(=O)NS(=O)(=O)C3CC3)cc12` [Compound 180, 3-acetyl-1-(2-((2S,4R)-2-(benzylcarbamoyl)-4-fluoropyrrolidin-1-yl)-2-oxoethyl)-N-(cyclopropylsulfonyl)-1H-indole-5-carboxamide]: the IC50 was in the range of 1000 to 10000 nM.
In the case of `CC(=O)c1cn(CC(=O)N2C[C@H](F)C[C@H]2C(=O)NCCc2ccccc2)c2ccc(C(=O)NS(=O)(=O)C3CC3)cc12` [Compound 185, 3-acetyl-N-(cyclopropylsulfonyl)-1-(2-((2S,4R)-4-fluoro-2-(phenethylcarbamoyl)pyrrolidin-1-yl)-2-oxoethyl)-1H-indole-5-carboxamide], the IC50 was > 10000 nM.
Turning to `CC(=O)c1cn(CC(=O)N2C[C@H](F)C[C@H]2C(=O)NCCCc2ccccc2)c2ccc(C(=O)NS(=O)(=O)C3CC3)cc12` [Compound 190, 3-acetyl-N-(cyclopropylsulfonyl)-1-(2-((2S,4R)-4-fluoro-2-((3-phenylpropyl)carbamoyl)pyrrolidin-1-yl)-2-oxoethyl)-1H-indole-5-carboxamide], the IC50 was 1000 to 10000 nM.
Take `CC(=O)c1cn(CC(=O)N2C[C@H](F)C[C@H]2C(=O)NCCCCc2ccccc2)c2ccc(C(=O)NS(=O)(=O)C3CC3)cc12` [Compound 195, 3-acetyl-N-(cyclopropylsulfonyl)-1-(2-((2S,4R)-4-fluoro-2-((4-phenylbutyl)carbamoyl)pyrrolidin-1-yl)-2-oxoethyl)-1H-indole-5-carboxamide]: the IC50 was > 10000 nM.
Take `CC(=O)c1cn(CC(=O)N2C[C@H](F)C[C@H]2C(=O)NCc2ccccc2)c2ccc(NC(=O)N3CCCC(F)(F)C3)cc12` [Compound 196, N-(3-acetyl-1-(2-((2S,4R)-2-(benzocarbamoyl)-4-fluoropyrrolidin-1-yl)-2-oxoethyl)-1H-indol-5-yl)-3,3-difluoropiperidine-1-carboxamide]: the IC50 was < 1000 nM.
Same read-out and setting: in the case of `CC(=O)c1cn(CC(=O)N2C[C@H](F)C[C@H]2C(=O)NCCc2ccccc2)c2ccc(NC(=O)N3CCCC(F)(F)C3)cc12` [Compound 197, N-(3-acetyl-1-(2-((2S,4R)-4-fluoro-2-(phenethylcarbamoyl)pyrrolidin-1-yl)-2-oxoethyl)-1H-indol-5-yl)-3,3-difluoropiperidine-1-carboxamide] it was < 1000 nM.
Take `CC(=O)c1cn(CC(=O)N2C[C@H](F)C[C@H]2C(=O)NCCCc2ccccc2)c2ccc(NC(=O)N3CCCC(F)(F)C3)cc12` [Compound 198, N-(3-acetyl-1-(2-((2S,4R)-4-fluoro-2-((3-phenylpropyl)carbamoyl)pyrrolidin-1-yl)-2-oxoethyl)-1H-indol-5-yl)-3,3-difluoropiperidine-1-carboxamide]: the IC50 is < 1000 nM.
For the compound `CC(=O)c1cn(CC(=O)N2C[C@H](F)C[C@H]2C(=O)NCCCCc2ccccc2)c2ccc(NC(=O)N3CCCC(F)(F)C3)cc12` [Compound 199, N-(3-acetyl-1-(2-((2S,4R)-4-fluoro-2-((4-phenylbutyl)carbamoyl)pyrrolidin-1-yl)-2-oxoethyl)-1H-indol-5-yl)-3,3-difluoropiperidine-1-carboxamide], the IC50 is < 1000 nM.

(Values after patent US10138225B2 (Achillion Pharmaceuticals, Inc., priority 2015, dated 2018).)
